Patent US10159697B2, “Methods for enhancing hematopoietic stem/progenitor cell engraftment” (CHILDREN'S MEDICAL CENTER CORPORATION, priority 2009, dated 2018)

Test system: hematopoietic stem and/or progenitor cell engraftment
Test: adult zebrafish whole kidney marrow competitive transplantation assay
Format: in vivo
Conditions: for engraftment signal in pilot screen of 10 bioactive compounds: by four weeks post transplant, 10 recipients per treatment; for average G/R / percentage of positive recipients: green marrow cells incubated in vitro for 4 hrs, mixed with red marrow 1:4, 4 wpt, compared with DMSO control; for engraftment: in vitro incubation of green marrow with 10 μM dmPGE2 or 0.5 μM BIO at room temperature for 2-4 hours, by 4 weeks post transplant
From the text: A transparent adult zebrafish, casper, was used as a transplantation recipient. Casper is a double homozygous pigment mutant for the nacre allele (devoid of melanocytes) and the roy allele (devoid of iridophores and reduced melanoyctyes), which allows direct visualization of GFP labeled hematopoietic stem cell homing and engraftment without killing the recipients. Two marrows are used: Tg(β-actin:GFP) and Red GloFish® respectively to compete with each other at varying ratios e.g., 1:4, which can generate robust competition between the two donors. In one embodiment, the red marrow is the competitor, as well as an internal control for the transplant. At different timepoints post-transplant, the recipients are anesthetized and two pictures for each recipient are taken by a fluorescence stereomicroscope with GFP/DsRed filters individually. Images are analyzed by software, such as ImageJ, which can quantify the GFP/DsRed fluorescence intensity. The relative engraftment efficiency of the manipulated green marrow is measured by the ratio of the GFP intensity over the DsRed intensity within the same kidney region after background subtraction (labeled as G/R).
A double-color labeled competitive transplantation assay was developed, as shown by the flow chart in FIG. 1A. GFP+ and DsRed2+ marrow cells are isolated from Tg(β-actin:GFP) and commercially available Red GloFish®. The two donor populations are mixed at a certain ratio and injected into sublethally irradiated casper recipients retro-orbitally. The DsRed2+ marrow is used as the competitor. Four weeks later, the engraftment is visualized by fluorescence dissection scope. Pictures of GFP and DsRed engraftment are taken for each recipient and analyzed by ImageJ. The kidney region is manually selected and the average fluorescence intensities of both green and red are measured within the same region. The average background intensity is measured in a region outside the fish, and subtracted from the kidney intensity. The calculation of the relative engraftment is shown by the equation in FIG. 1B.
Adult zebrafish donors are anaesthetized with 0.2% tricaine before blood and kidney collection. Peripheral blood is obtained from adult casper by cardiac puncture with micropipette tips coated with heparin and collected into 0.9×PBS containing 5% FCS. About 3-5 million red blood cells are harvested from one donor. To dissect whole kidney marrow (WKM), a ventral midline incision is made on the donor fish. Whole kidney is dissected out and placed into ice-cold 0.9×PBS containing 5% FCS. Single-cell suspensions are generated by aspiration followed by filtering through a […] nylon mesh filter into a 50 ml conical tube. The flow-though part is diluted with a final volume of 25 ml and centrifuged at 1,500 rpm for 8 minutes. The supernatant is discarded and the pellet cells are resuspended in 1 ml 0.9×PBS containing 5% FCS. The number of viable cells are counted with a hemocytometer. […] Finally, the peripheral blood and kidney marrow cells are centrifuged at 1,500 rpm for 8 minutes, resuspended in 0.9×PBS containing 5% FCS and mixed at a certain ratio and concentration. Casper recipients are anesthetized in tricaine. 4 μl of the cell suspension mixture described above is injected into the circulation retro-orbitally through a Hamilton syringe (26 s gauge, 10 μl volume). […] Transplanted recipients can be anesthetized in tricaine and visualized over time on a Zeiss Discovery V8 stereomicroscope with a 1.2× PlanApo lens and GFP/DsRed filters. Images are captured using AxioVision software and for each recipient, two images are taken with GFP or DsRed filter respectively. The images are all saved in .tif format and analyzed using ImageJ software.

| SMILES | score in the competitive transplant model (at 3 months) | score in the competitive transplant model (at 4 weeks) | engraftment signal in pilot screen of 10 bioactive compounds | average G/R | percentage of positive recipients | engraftment |
| --- | --- | --- | --- | --- | --- | --- |
| O=C1Nc2cc(Br)ccc2C1=C1Nc2ccccc2C1=NO [BIO, 6-bromorindirubin-3′-oxime] | score positive | score positive | enhanced signal above the rest of the chemicals tested | significantly increased | significantly increased | increase engraftment |
| CCCCC(C)(C)[C@H](O)/C=C/[C@H]1[C@H](O)CC(=O)[C@@H]1C/C=C\CCCC(=O)O [dmPGE2, 16-,16-dimethyl Prostaglandin E2] | score positive | score positive | enhanced signal above the rest of the chemicals tested | significantly increased | significantly increased | increase engraftment |
